# Laboratory results as given in US8586110B2, “Therapeutic composition produced using Camellia sinensis leaves and hydrogen peroxide” (LiveLeaf, Inc., priority 2007, dated 2013).
# Tested on: wild strain E-Coli
# Assay: E-Coli culture turbidity over time (Experiment 4)
# Assay type: cell-based
# Settings: 25 ppm hydrogen peroxide or equivalent concentration
# Protocol: A wild strain E-Coli culture was added to three samples. The sample A contained 25 ppm hydrogen peroxide in water. The sample B contained a solution of Formulation A diluted to equivalent 25 ppm hydrogen peroxide fraction. The sample C contained a solution having a green tea extract of the same concentration of Formulation A but without hydrogen peroxide.
compound,measurement,value
OO [hydrogen peroxide],antimicrobial effect on bacteria population (visual turbidity),initially reduced but began to exhibit increased visual turbidity after 16 hours
